Laboratory results taken from ChEMBL document CHEMBL1122452, “Mitomycin C analogues with secondary amines at position 7” (J Med Chem, 1983).

Columns and labels:
[1] = test system: P388; experiment: Maximum % T/C against P-388 murine leukemia cells in mice.; format: functional, Mus musculus
[2] = test system: P388; experiment: Maximum % T/C with mitomycin C against P-388 murine leukemia cells in mice.; format: functional, Mus musculus
[3] = test system: P388; experiment: Minimum effective dose required for antitumor activity against P-388 murine leukemia cells in mice.; format: functional; conditions: Mus musculus, read-out: MED
[4] = test system: P388; experiment: Optimal dose required for antitumor activity against P-388 murine leukemia cells in mice.; format: functional, Mus musculus
[5] = test system: B16; experiment: Average weight change after ip administration of a dose of 2 mg/kg/day in B-16 melanoma in mice; format: functional, Mus musculus; conditions: route intraperitoneal
[6] = test system: B16; experiment: Average weight change after ip administration of a dose of 3 mg/kg/day in B-16 melanoma in mice; format: functional, Mus musculus; conditions: route intraperitoneal
[7] = test system: B16; experiment: Average weight change after ip administration of a dose of 5 mg/kg/day inB-16 melanoma in mice; format: functional, Mus musculus; conditions: route intraperitoneal
[8] = test system: B16; experiment: Tumor free survivors on 62nd day after ip administration of a dose of 2 mg/kg/day in B-16 melanoma in mice; out of 10; format: functional, Mus musculus; conditions: route intraperitoneal
[9] = test system: B16; experiment: Tumor free survivors on 62nd day after ip administration of a dose of 3 mg/kg/day in B-16 melanoma in mice; format: functional, Mus musculus; conditions: route intraperitoneal
[10] = test system: B16; experiment: Median survival time (% T/C) after ip administration of a dose of 2 mg/kg/day in B-16 melanoma in mice; format: functional, Mus musculus; conditions: route intraperitoneal
[11] = test system: B16; experiment: Median survival time (% T/C) after ip administration of a dose of 3 mg/kg/day in B-16 melanoma in mice; format: functional, Mus musculus; conditions: route intraperitoneal
[12] = test system: P388; experiment: Leukopenia % change in WBC at optimal dose on 3rd day.; format: functional, Mus musculus
[13] = E1/2 value related to the saturated calomal electrode.; format: ADME; parameters: unit not given here

## COC12[C@@H]3N[C@@H]3CN1C1=C(C(=O)C(N(C)C)=C(C)C1=O)[C@@H]2COC(N)=O (some centres undefined)
[1]
  T/C: 238%
[2]
  T/C: 325%
[3]
  minimal effective dose: 0.2 mg/kg
[4]
  Dose: 25.6 mg/kg

## COC12[C@@H]3N[C@@H]3CN1C1=C(C(=O)C(N3CC3C#N)=C(C)C1=O)[C@@H]2COC(N)=O (some centres undefined)
[5]
  Average weight change: 0 g
[6]
  Average weight change: 0 g
[7]
  Average weight change: -1.3 g
[8]
  Cures: 5
[9]
  Cures: 0
[10]
  T/C: 307%
[11]
  T/C: 65%
[12]
  Change in WBC: 2%
[1]
  T/C: 339%
[2]
  T/C: 228%
[3]
  minimal effective dose: 0.2 mg/kg
[13]
  E1/2: 0.3
[4]
  Dose: 12.8 mg/kg

## COC(=O)C1CN1C1=C(C)C(=O)C2=C(C1=O)[C@H](COC(N)=O)C1(OC)[C@@H]3N[C@@H]3CN21 (some centres undefined)
[1]
  T/C: 147%
[2]
  T/C: 288%
[3]
  minimal effective dose: 1.6 mg/kg
[4]
  Dose: 6.4 mg/kg

## COC12[C@@H]3N[C@@H]3CN1C1=C(C(=O)C(N3CCNCC3)=C(C)C1=O)[C@@H]2COC(N)=O (some centres undefined)
[1]
  T/C: 200%
[2]
  T/C: 288%
[3]
  minimal effective dose: 0.2 mg/kg
[13]
  E1/2: 0.26
[4]
  Dose: 12.8 mg/kg

## COC12[C@@H]3N[C@@H]3CN1C1=C(C(=O)C(N3CCCC(O)C3)=C(C)C1=O)[C@@H]2COC(N)=O (some centres undefined)
[12]
  Change in WBC: 55%
[1]
  T/C: 250%
[2]
  T/C: 161%
[3]
  minimal effective dose: 0.2 mg/kg
[13]
  E1/2: 0.26
[4]
  Dose: 12.8 mg/kg

## COC12[C@@H]3N[C@@H]3CN1C1=C(C(=O)C(N3CC3C(N)=O)=C(C)C1=O)[C@@H]2COC(N)=O (some centres undefined)
[1]
  T/C: 206%
[2]
  T/C: 233%
[3]
  minimal effective dose: 0.8 mg/kg
[4]
  Dose: 6.4 mg/kg

## COC12[C@@H]3N[C@@H]3CN1C1=C(C(=O)C(N3CC=CC3)=C(C)C1=O)[C@@H]2COC(N)=O (some centres undefined)
[12]
  Change in WBC: -13%
[1]
  T/C: 216%
[2]
  T/C: 268%
[3]
  minimal effective dose: 0.2 mg/kg
[4]
  Dose: 12.8 mg/kg

## COC12[C@@H]3N[C@@H]3CN1C1=C(C(=O)C(N3CCC(O)(O)CC3)=C(C)C1=O)[C@@H]2COC(N)=O (some centres undefined)
[1]
  T/C: 231%
[2]
  T/C: 219%
[3]
  minimal effective dose: 0.2 mg/kg
[13]
  E1/2: 0.28
[4]
  Dose: 25.6 mg/kg

## COC12[C@@H]3N[C@@H]3CN1C1=C(C(=O)C(N3CC3c3ccccc3)=C(C)C1=O)[C@@H]2COC(N)=O (some centres undefined)
[12]
  Change in WBC: 38%
[1]
  T/C: 311%
[2]
  T/C: 200%
[3]
  minimal effective dose: 0.2 mg/kg
[4]
  Dose: 3.2 mg/kg

## COC12[C@@H]3N[C@@H]3CN1C1=C(C(=O)C(N3CCC(O)C3)=C(C)C1=O)[C@@H]2COC(N)=O (some centres undefined)
[1]
  T/C: 163%
[2]
  T/C: 219%
[3]
  minimal effective dose: 0.8 mg/kg
[13]
  E1/2: 0.37
[4]
  Dose: 25.6 mg/kg

## COC12[C@@H]3N[C@@H]3CN1C1=C(C(=O)C(N3CCSC3)=C(C)C1=O)[C@@H]2COC(N)=O (some centres undefined)
[12]
  Change in WBC: 69%
[1]
  T/C: 222%
[2]
  T/C: 183%
[3]
  minimal effective dose: 0.2 mg/kg
[13]
  E1/2: 0.39
[4]
  Dose: 25.6 mg/kg

## COC12[C@@H]3N[C@@H]3CN1C1=C(C(=O)C(N3CCN(c4ccc(C(C)=O)cc4)CC3)=C(C)C1=O)[C@@H]2COC(N)=O (some centres undefined)
[12]
  Change in WBC: 40%
[1]
  T/C: 161%
[2]
  T/C: 200%
[3]
  minimal effective dose: 0.4 mg/kg
[4]
  Dose: 3.2 mg/kg

## COC12[C@@H]3N[C@@H]3CN1C1=C(C(=O)C(N3CCN(C)CC3)=C(C)C1=O)[C@@H]2COC(N)=O (some centres undefined)
[12]
  Change in WBC: 34%
[1]
  T/C: 261%
[2]
  T/C: 183%
[3]
  minimal effective dose: 0.2 mg/kg
[13]
  E1/2: 0.24
[4]
  Dose: 3.2 mg/kg

## COC12[C@@H]3N[C@@H]3CN1C1=C(C(=O)C(N3CCCC(C)C3)=C(C)C1=O)[C@@H]2COC(N)=O (some centres undefined)
[1]
  T/C: 238%
[2]
  T/C: 319%
[3]
  minimal effective dose: 0.2 mg/kg
[4]
  Dose: 25.6 mg/kg

## COC12[C@@H]3N[C@@H]3CN1C1=C(C(=O)C(N(C)CCN(C)C)=C(C)C1=O)[C@@H]2COC(N)=O (some centres undefined)
[1]
  T/C: 267%
[2]
  T/C: 211%
[3]
  minimal effective dose: 0.8 mg/kg
[13]
  E1/2: 0.33
[4]
  Dose: 25.6 mg/kg

## COC12[C@@H]3N[C@@H]3CN1C1=C(C(=O)C(N3CCOCC3)=C(C)C1=O)[C@@H]2COC(N)=O (some centres undefined)
[12]
  Change in WBC: 82%
[1]
  T/C: 271%
[2]
  T/C: 224%
[3]
  minimal effective dose: 0.4 mg/kg
[13]
  E1/2: 0.39
[4]
  Dose: 25.6 mg/kg

## COC12[C@@H]3N[C@@H]3CN1C1=C(C(=O)C(N3CCc4ccccc43)=C(C)C1=O)[C@@H]2COC(N)=O (some centres undefined)
[1]
  T/C: 150%
[2]
  T/C: 288%
[3]
  minimal effective dose: 0.8 mg/kg
[4]
  Dose: 12.8 mg/kg

## COC12[C@@H]3N[C@@H]3CN1C1=C(C(=O)C(N3CCCC3)=C(C)C1=O)[C@@H]2COC(N)=O (some centres undefined)
[12]
  Change in WBC: 64%
[1]
  T/C: >333%
[2]
  T/C: 161%
[3]
  minimal effective dose: 0.4 mg/kg
[13]
  E1/2: 0.35
[4]
  Dose: 25.6 mg/kg

## COC12[C@@H]3N[C@@H]3CN1C1=C(C(=O)C(N3CCC(N4CCCCC4)CC3)=C(C)C1=O)[C@@H]2COC(N)=O (some centres undefined)
[12]
  Change in WBC: 29%
[1]
  T/C: 194%
[2]
  T/C: 200%
[3]
  minimal effective dose: 1.6 mg/kg
[13]
  E1/2: 0.28
[4]
  Dose: 12.8 mg/kg

## COC12[C@@H]3N[C@@H]3CN1C1=C(C(=O)C(N3CC3)=C(C)C1=O)[C@@H]2COC(N)=O (some centres undefined)
[12]
  Change in WBC: 11%
[1]
  T/C: 266%
[2]
  T/C: 300%
[3]
  minimal effective dose: 0.025 mg/kg
[13]
  E1/2: 0.31
[4]
  Dose: 1.6 mg/kg

## COC12[C@@H]3N[C@@H]3CN1C1=C(C(=O)C(N3CCSCC3)=C(C)C1=O)[C@@H]2COC(N)=O (some centres undefined)
[12]
  Change in WBC: 44%
[1]
  T/C: 211%
[2]
  T/C: 178%
[3]
  minimal effective dose: 0.4 mg/kg
[4]
  Dose: 3.2 mg/kg

## COC12[C@@H]3N[C@@H]3CN1C1=C(C(=O)C(N3CCCCC3)=C(C)C1=O)[C@@H]2COC(N)=O (some centres undefined)
[1]
  T/C: 183%
[2]
  T/C: 322%
[3]
  minimal effective dose: 0.2 mg/kg
[13]
  E1/2: 0.27
[4]
  Dose: 12.8 mg/kg

## CCOC(=O)C1CN1C1=C(C)C(=O)C2=C(C1=O)[C@H](COC(N)=O)C1(OC)[C@@H]3N[C@@H]3CN21 (some centres undefined)
[1]
  T/C: 133%
[2]
  T/C: 233%
[4]
  Dose: 12.8 mg/kg

## COC12[C@@H]3N[C@@H]3CN1C1=C(C(=O)C(N3CC3C)=C(C)C1=O)[C@@H]2COC(N)=O (some centres undefined)
[12]
  Change in WBC: 24%
[1]
  T/C: 233%
[2]
  T/C: 250%
[3]
  minimal effective dose: 0.1 mg/kg
[13]
  E1/2: 0.32
[4]
  Dose: 3.2 mg/kg

## CCN(CC)C1=C(C)C(=O)C2=C(C1=O)[C@H](COC(N)=O)C1(OC)[C@@H]3N[C@@H]3CN21 (some centres undefined)
[1]
  T/C: 222%
[2]
  T/C: 211%
[3]
  minimal effective dose: 1.6 mg/kg
[13]
  E1/2: 0.26
[4]
  Dose: 25.6 mg/kg
